Test results taken from PubChem BioAssay (NCI).
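Where inhibition never reached the appropriate level, the endpoint shown equals the highest concentration tested. Otherwise, values were interpolated linearly from a five-concentration, 48-hour dose response in 96-well plates. TGI denotes the concentration required for complete inhibition of growth.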

Legend:
Assay in all cases: DTP human tumour cell line panel, 48 h
[1] = test system: U251 CNS
[2] = test system: CCRF-CEM leukemia
[3] = test system: RXF 393 renal
[4] = test system: MDA-MB-231 breast
[5] = test system: DU-145 prostate
[6] = test system: HT29 colon
[7] = test system: T-47D breast
[8] = test system: HOP-92 NSCLC
[9] = test system: BT-549 breast
[10] = test system: PC-3 prostate
[11] = test system: UACC-257 melanoma
[12] = test system: MOLT-4 leukemia
[13] = test system: NCI-H23 lung
[14] = test system: HL-60(TB) leukemia
[15] = test system: SF-295 CNS
[16] = test system: MDA-N
[17] = test system: SR leukemia
[18] = test system: HS 578T breast
[19] = test system: UACC-62 melanoma

Row | Structure (SMILES) | TGI [1] [µM] | TGI [2] [µM] | TGI [3] [µM] | TGI [4] [µM] | TGI [5] [µM] | TGI [6] [µM] | TGI [7] [µM] | TGI [8] [µM] | TGI [9] [µM] | TGI [10] [µM] | TGI [11] [µM] | TGI [12] [µM] | TGI [13] [µM] | TGI [14] [µM] | TGI [15] [µM] | TGI [16] [µM] | TGI [17] [µM] | TGI [18] [µM] | TGI [19] [µM]
1 | CC(Cc1cccc2c1Nc1ccccc1S2)N(C)CCO (centres undefined) | > 100 | > 100 | > 100 | > 100 | > 100 | > 100 | > 100 | > 100 | > 100 | > 100 | > 100 | > 100 | > 100 | > 100 | > 100 | > 100 | > 100 | > 100 | > 100
2 | CCOC(=O)C1(C#N)C(C#N)(C#N)C1(C#N)C#N | > 100 | > 100 | > 100 | > 100 | > 100 | > 100 | > 100 | > 100 | > 100 | > 100 | > 100 | > 100 | > 100 | > 100 | > 100 | > 100 | > 100 | > 100 | > 100
3 | O=C1CCSc2nc(-c3ccc4c(c3)OCO4)nn21 | > 10 | > 10 | > 10 | > 10 | > 10 | > 10 | > 10 | > 10 | > 10 | > 10 | > 10 | > 10 | > 10 | > 10 | > 10 | > 10 | > 10 | > 10 | > 10
4 | COC(=O)c1ccc(C)cc1C1CN=NC12Cc1cc(C)ccc1C2=O (centres undefined) | > 70.6 | > 100 | > 71.6 | 64.9 | 97.6 | 15.2 | > 100 | 84.7 | > 85.7 | 58.1 | > 94.2 | > 86.6 | 66.5 | 16.3 | > 77.2 | 6.11 | 32.2 | 41.3 | > 87.3
5 | COc1ccccc1NC(=O)C(=O)Cc1cnc2ccccc2n1 | > 100 | > 100 | > 100 | > 100 | > 100 | > 100 | > 100 | > 100 | > 100 | > 100 | > 100 | > 100 | > 100 | > 100 | > 100 | > 100 | > 100 | > 100 | > 100
6 | O=C(CCc1ccc(O)c(O)c1)NCCc1cc(O)c(O)c(O)c1 | 31.7 | > 100 | > 100 | 28.5 | > 100 | 35.4 | > 100 | > 100 | 31.1 | > 100 | > 100 | 46.5 | 31.3 | > 100 | 33.3 | 30.6 | > 100 | > 100 | > 100
